We go through ten compounds from patent US12139492B2 (Endotarget Inc., priority 2021, dated 2024).

pIC50: −log10 of the molar value. A value given as a limit tells only on which side of the number the result lay.

The test system of one assay is Mino cells. Put plainly: Antiproliferative effect, MTS cell viability assay, Mino cells. The assay is classed as cell-based. The conditions noted are these: Homo sapiens, MINO, Mino mantle cell lymphoma cells; read-out: IC50 (anti-proliferation) Mino cells. The procedure, abridged: (§1)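 Readout was MTS-derived formazan absorbance (490 nm) reflecting metabolically active cells. Treatment lasted 72 h over a 0–10 μM range (0.001, 0.01, 0.1, 1, 10 μM) in JeKo-1 and Mino B-cell malignancy cells.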
(In general: Formazan colour is commonly taken as a measure of viable cells.)

The subject of a further assay is JeKo-1 cells. The assay can be described thus: Antiproliferative effect, MTS cell viability assay, JeKo-1 cells. The assay is classed as cell-based. Particulars: Homo sapiens; JeKo-1 mantle cell lymphoma cells; read-out: IC50 (anti-proliferation) JeKO-1 cells. The procedure, abridged:
as §1

Another assay deals with BTK (Homo sapiens, UniProt Q06187). The assay can be described thus: Degradation of BTK protein in Namalwa cells (Western blot; DC50, Dmax). Particulars: for DC50: read-out: DC50 (BTK degradation), concentration giving 50% reduction of BTK expression level, cell line not given; for Dmax: read-out: Dmax (BTK degradation).
Sequence of BTK (Q06187 whole entry): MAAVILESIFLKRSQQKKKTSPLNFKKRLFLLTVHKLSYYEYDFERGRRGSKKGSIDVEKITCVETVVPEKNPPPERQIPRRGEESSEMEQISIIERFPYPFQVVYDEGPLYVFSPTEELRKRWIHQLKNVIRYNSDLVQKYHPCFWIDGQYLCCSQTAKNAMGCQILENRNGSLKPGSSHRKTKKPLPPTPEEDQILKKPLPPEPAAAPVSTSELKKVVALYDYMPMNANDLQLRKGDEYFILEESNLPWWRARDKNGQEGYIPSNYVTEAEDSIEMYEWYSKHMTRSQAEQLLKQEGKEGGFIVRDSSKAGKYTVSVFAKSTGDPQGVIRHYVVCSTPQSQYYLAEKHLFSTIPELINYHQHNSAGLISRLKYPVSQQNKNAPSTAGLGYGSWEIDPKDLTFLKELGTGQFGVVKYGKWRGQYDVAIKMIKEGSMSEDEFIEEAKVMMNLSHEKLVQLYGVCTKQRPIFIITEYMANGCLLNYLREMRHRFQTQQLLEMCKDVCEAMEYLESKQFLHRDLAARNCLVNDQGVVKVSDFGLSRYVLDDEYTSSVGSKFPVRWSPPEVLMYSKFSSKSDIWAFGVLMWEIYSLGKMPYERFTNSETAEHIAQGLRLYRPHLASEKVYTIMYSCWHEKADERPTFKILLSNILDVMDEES

Consider `NC(=O)c1c(-c2ccc(Oc3ccccc3)cc2)nn2c1NCC[C@H]2C1CCN(CC2CCN(C(=O)N3CCN(C4CCN(c5ccc6c(c5)CN(C5CCC(=O)NC5=O)C6=O)CC4)CC3)CC2)CC1` (stereo partly drawn) [Compound 402, (7S)-7-(1-((1-(4-(1-(2-(2,6-dioxopiperidin-3-yl)-1-oxoisoindolin-5-yl)piperidin-4-yl)piperazine-1-carbonyl)piperidin-4-yl)methyl)piperidin-4-yl)-2-(4-phenoxyphenyl)-4,5,6,7-tetrahydropyrazolo[1,5-a]pyrimidine-3-carboxamide], for which the pIC50 in the assay with Mino cells was above 6.00; in the assay on JeKo-1 cells it was 5.00 to 6.00. In addition, the DC50 on BTK lay within 10 to 50 nM. On BTK, the Dmax was above 90%.

As to `NC(=O)c1c(-c2ccc(Oc3ccccc3)cc2)nn2c1NCC[C@H]2C1CCN(CC2CCN(C(=O)N3CCC(N4CCN(c5ccc6c(c5)C(=O)N(C5CCC(=O)NC5=O)C6=O)CC4)CC3)CC2)CC1` (stereo partly drawn) [Compound 403, (7S)-7-(1-((1-(4-(4-(2-(2,6-dioxopiperidin-3-yl)-1,3-dioxoisoindolin-5-yl)piperazin-1-yl)piperidine-1-carbonyl)piperidin-4-yl)methyl)piperidin-4-yl)-2-(4-phenoxyphenyl)-4,5,6,7-tetrahydropyrazolo[1,5-a]pyrimidine-3-carboxamide], the pIC50 in the assay with Mino cells is above 6.00. The pIC50 in the assay with JeKo-1 cells is above 6.00. Moreover, on BTK, the DC50 was in the range of 10 to 50 nM and the Dmax was above 90%.

In the case of `NC(=O)c1c(-c2ccc(Oc3ccccc3)cc2)nn2c1NCC[C@H]2C1CCN(CC2CCN(C(=O)N3CCC(N4CCN(c5ccc6c(c5)CN(C5CCC(=O)NC5=O)C6=O)CC4)CC3)CC2)CC1` (stereo partly drawn) [Compound 404, (7S)-7-(1-((1-(4-(4-(2-(2,6-dioxopiperidin-3-yl)-1-oxoisoindolin-5-yl)piperazin-1-yl)piperidine-1-carbonyl)piperidin-4-yl)methyl)piperidin-4-yl)-2-(4-phenoxyphenyl)-4,5,6,7-tetrahydropyrazolo[1,5-a]pyrimidine-3-carboxamide], in the assay on Mino cells, the pIC50 is above 6.00. The pIC50 in the assay with JeKo-1 cells is above 6.00. Besides, on BTK, the DC50 is below 10 nM and the Dmax is above 90%.

Turning to `NC(=O)c1c(-c2ccc(Oc3ccccc3)cc2)nn2c1NCC[C@H]2C1CCN(CC2CCN(C(=O)N3CCC(C4CCN(c5ccc6c(c5)C(=O)N(C5CCC(=O)NC5=O)C6=O)CC4)CC3)CC2)CC1` (stereo partly drawn) [Compound 405, (7S)-7-(1-((1-(1′-(2-(2,6-dioxopiperidin-3-yl)-1,3-dioxoisoindolin-5-yl)-[4,4′-bipiperidine]-1-carbonyl)piperidin-4-yl)methyl)piperidin-4-yl)-2-(4-phenoxyphenyl)-4,5,6,7-tetrahydropyrazolo[1,5-a]pyrimidine-3-carboxamide], the figures for the pIC50 in the assay with Mino cells and with JeKo-1 cells were above 6.00 and 5.00 to 6.00, respectively. Further, on BTK, the DC50 lay in the range of 10 to 50 nM. The Dmax at BTK is above 90%.

In the case of `NC(=O)c1c(-c2ccc(Oc3ccccc3)cc2)nn2c1NCC[C@H]2C1CCN(CC2CCN(C(=O)N3CCC(C4CCN(c5ccc6c(c5)CN(C5CCC(=O)NC5=O)C6=O)CC4)CC3)CC2)CC1` (stereo partly drawn) [Compound 406, (7S)-7-(1-((1-(1′-(2-(2,6-dioxopiperidin-3-yl)-1-oxoisoindolin-5-yl)-[4,4′-bipiperidine]-1-carbonyl)piperidin-4-yl)methyl)piperidin-4-yl)-2-(4-phenoxyphenyl)-4,5,6,7-tetrahydropyrazolo[1,5-a]pyrimidine-3-carboxamide], the pIC50 in the assay on Mino cells was above 6.00. Besides, the pIC50 in the assay with JeKo-1 cells was 5.00 to 6.00. For the same compound, on BTK, the DC50 was below 10 nM and the Dmax is above 90%.

As to `NC(=O)c1c(-c2ccc(Oc3ccccc3)cc2)nn2c1NCC[C@H]2C1CCN(CC2CCN(C(=O)N3CCC(N4CCC(c5ccc6c(c5)C(=O)N(C5CCC(=O)NC5=O)C6=O)CC4)CC3)CC2)CC1` (stereo partly drawn) [Compound 407, (7S)-7-(1-((1-(4-(2-(2,6-dioxopiperidin-3-yl)-1,3-dioxoisoindolin-5-yl)-[1,4′-bipiperidine]-1′-carbonyl)piperidin-4-yl)methyl)piperidin-4-yl)-2-(4-phenoxyphenyl)-4,5,6,7-tetrahydropyrazolo[1,5-a]pyrimidine-3-carboxamide], the pIC50 in the assay with Mino cells is 5.00 to 6.00. Besides, in the assay with JeKo-1 cells, the pIC50 was below 5.00. Moreover, on BTK, the DC50 is 10 to 50 nM and the greatest degradation seen (Dmax) is above 75%.

Turning to `NC(=O)c1c(-c2ccc(Oc3ccccc3)cc2)nn2c1NCC[C@H]2C1CCN(CC2CCN(C(=O)N3CCC(N4CCC(c5ccc6c(c5)CN(C5CCC(=O)NC5=O)C6=O)CC4)CC3)CC2)CC1` (stereo partly drawn) [Compound 408, (7S)-7-(1-((1-(4-(2-(2,6-dioxopiperidin-3-yl)-1-oxoisoindolin-5-yl)-[1,4′-bipiperidine]-1′-carbonyl)piperidin-4-yl)methyl)piperidin-4-yl)-2-(4-phenoxyphenyl)-4,5,6,7-tetrahydropyrazolo[1,5-a]pyrimidine-3-carboxamide], the pIC50 with Mino cells was below 5.00. Moreover, the pIC50 in the assay with JeKo-1 cells is 5.00 to 6.00. At BTK, the DC50 lay within 10 to 50 nM and the greatest degradation seen (Dmax) was above 75%.

As for `NC(=O)c1c(-c2ccc(Oc3ccccc3)cc2)nn2c1NCC[C@H]2C1CCN(CC2CCN(C(=O)N3CCC(CN4CCN(c5ccc6c(c5)C(=O)N(C5CCC(=O)NC5=O)C6=O)CC4)CC3)CC2)CC1` (stereo partly drawn) [Compound 409, (7S)-7-(1-((1-(4-((4-(2-(2,6-dioxopiperidin-3-yl)-1,3-dioxoisoindolin-5-yl)piperazin-1-yl)methyl)piperidine-1-carbonyl)piperidin-4-yl)methyl)piperidin-4-yl)-2-(4-phenoxyphenyl)-4,5,6,7-tetrahydropyrazolo[1,5-a]pyrimidine-3-carboxamide], the pIC50 in the assay on Mino cells is above 6.00. Also, the pIC50 in the assay with JeKo-1 cells was 5.00 to 6.00. At BTK, the 50% degradation concentration (DC50) was below 10 nM and the Dmax is above 90%.

Take `NC(=O)c1c(-c2ccc(Oc3ccccc3)cc2)nn2c1NCC[C@H]2C1CCN(CC2CCN(C(=O)N3CCC(CN4CCN(c5ccc6c(c5)CN(C5CCC(=O)NC5=O)C6=O)CC4)CC3)CC2)CC1` (stereo partly drawn) [Compound 410, (7S)-7-(1-((1-(4-((4-(2-(2,6-dioxopiperidin-3-yl)-1-oxoisoindolin-5-yl)piperazin-1-yl)methyl)piperidine-1-carbonyl)piperidin-4-yl)methyl)piperidin-4-yl)-2-(4-phenoxyphenyl)-4,5,6,7-tetrahydropyrazolo[1,5-a]pyrimidine-3-carboxamide]: the pIC50 with Mino cells was 5.00 to 6.00. For the same compound, the pIC50 in the assay on JeKo-1 cells was 5.00 to 6.00. In addition, on BTK, the 50% degradation concentration (DC50) is below 10 nM and the Dmax was above 90%.

For the compound `NC(=O)c1c(-c2ccc(Oc3ccccc3)cc2)nn2c1NCC[C@H]2C1CCN(CC2CCN(C(=O)N3CCN(CC4CCN(c5ccc6c(c5)C(=O)N(C5CCC(=O)NC5=O)C6=O)CC4)CC3)CC2)CC1` (stereo partly drawn) [Compound 411, (7S)-7-(1-((1-(4-((1-(2-(2,6-dioxopiperidin-3-yl)-1,3-dioxoisoindolin-5-yl)piperidin-4-yl)methyl)piperazine-1-carbonyl)piperidin-4-yl)methyl)piperidin-4-yl)-2-(4-phenoxyphenyl)-4,5,6,7-tetrahydropyrazolo[1,5-a]pyrimidine-3-carboxamide], the pIC50 with Mino cells is above 6.00. The pIC50 with JeKo-1 cells was 5.00 to 6.00. In addition, at BTK, the DC50 fell in the range of 10 to 50 nM and the Dmax is above 90%.

Usually DC50 stands for the midpoint of the concentration-degradation curve. As a reminder, the Dmax is the largest share of the target that was removed.
